Reference: patent US9822114B2, “Tricyclic oxazolidinone antibiotic compounds” (Idorsia Pharmaceuticals Ltd, priority 2008, dated 2017)

The compounds below were run on M. catarrhalis A894 (assay: Minimal inhibitory concentration (MIC), microdilution method in cation-adjusted Mueller-Hinton Broth (CLSI M7-A7)). Conditions: Moraxella catarrhalis, strain A894.
Assay type: cell-based
Method: Minimal inhibitory concentrations (MICs; mg/1) were determined in cation-adjusted Mueller-Hinton Broth by a microdilution method following the description given in “Methods for Dilution Antimicrobial Susceptibility Tests for Bacteria that Grow Aerobically”, Approved standard, 7th ed., Clinical and Laboratory Standards Institute (CLSI) Document M7-A7, Wayne, Pa., USA, 2006.

MIC, 2 mg/L:
O=C1COc2ccc(N3C[C@H](CCN[C@H]4Cn5c(=O)ccc6cccc4c65)OC3=O)cc2N1 [Example 157, (R)-1-{2-[(S)-2-oxo-3-(3-oxo-3,4-dihydro-2H-benzo[1,4]oxazin-6-yl)-oxazolidin-5-yl]-ethylamino}-1,2-dihydro-pyrrolo[3,2,1-ij]quinolin-4-one]

MIC, ≤ 0.031 mg/L:
O=C1COc2ccc(N3C[C@H](CCCN[C@H]4Cn5c(=O)ccc6cccc4c65)OC3=O)nc2N1 [Example 135, (R)-1-{3-[(S)-2-oxo-3-(3-oxo-3,4-dihydro-2H-pyrido[3,2-b][1,4]oxazin-6-yl)-oxazolidin-5-yl]-propylamino}-1,2-dihydro-pyrrolo[3,2,1-ij]quinolin-4-one]
O=C1CSc2ccc(N3C[C@H](CCCN[C@@H]4Cn5c(=O)ccc6cccc4c65)OC3=O)nc2N1 [Example 136, (S)-1-{3-[(S)-2-oxo-3-(3-oxo-3,4-dihydro-2H-pyrido[3,2-b][1,4]thiazin-6-yl)-oxazolidin-5-yl]-propylamino}-1,2-dihydro-pyrrolo[3,2,1-ij]quinolin-4-one]
O=C1CSc2ccc(N3C[C@@H](CCCN[C@@H]4Cn5c(=O)ccc6cccc4c65)OC3=O)nc2N1 [Example 137, (S)-1-{3-[(R)-2-oxo-3-(3-oxo-3,4-dihydro-2H-pyrido[3,2-b][1,4]thiazin-6-yl)-oxazolidin-5-yl]-propylamino}-1,2-dihydro-pyrrolo[3,2,1-ij]quinolin-4-one]
O=C1CSc2ccc(N3C[C@@H](CCCN[C@H]4Cn5c(=O)ccc6ncc(F)c4c65)OC3=O)cc2N1 [Example 138, (R)-3-fluoro-4-{3-[(R)-2-oxo-3-(3-oxo-3,4-dihydro-2H-benzo[1,4]thiazin-6-yl)-oxazolidin-5-yl]-propylamino}-4,5-dihydro-pyrrolo[3,2,1-de][1,5]naphthyridin-7-one]
O=C1CSc2ccc(N3C[C@H](CCCN[C@H]4Cn5c(=O)ccc6ncc(F)c4c65)OC3=O)cc2N1 [Example 139, (R)-3-fluoro-4-{3-[(S)-2-oxo-3-(3-oxo-3,4-dihydro-2H-benzo[1,4]thiazin-6-yl)-oxazolidin-5-yl]-propylamino}-4,5-dihydro-pyrrolo[3,2,1-de][1,5]naphthyridin-7-one]
O=C1COc2ccc(N3C[C@@H](CCCN[C@H]4Cn5c(=O)ccc6ncc(F)c4c65)OC3=O)cc2N1 [Example 140, (R)-3-fluoro-4-{3-[(R)-2-oxo-3-(3-oxo-3,4-dihydro-2H-benzo[1,4]oxazin-6-yl)-oxazolidin-5-yl]-propylamino}-4,5-dihydro-pyrrolo[3,2,1-de][1,5]naphthyridin-7-one]
O=C1COc2ccc(N3C[C@H](CCCN[C@H]4Cn5c(=O)ccc6ncc(F)c4c65)OC3=O)cc2N1 [Example 141, (R)-3-fluoro-4-{3-[(S)-2-oxo-3-(3-oxo-3,4-dihydro-2H-benzo[1,4]oxazin-6-yl)-oxazolidin-5-yl]-propylamino}-4,5-dihydro-pyrrolo[3,2,1-de][1,5]naphthyridin-7-one]
O=C1CSc2ccc(N3C[C@@H](CCCN[C@H]4Cn5c(=O)ccc6ncc(F)c4c65)OC3=O)nc2N1 [Example 142, (R)-3-fluoro-4-{3-[(R)-2-oxo-3-(3-oxo-3,4-dihydro-2H-pyrido[3,2-b][1,4]thiazin-6-yl)-oxazolidin-5-yl]-propylamino}-4,5-dihydro-pyrrolo[3,2,1-de][1,5]naphthyridin-7-one]
O=C1CSc2ccc(N3C[C@H](CCCN[C@H]4Cn5c(=O)ccc6ncc(F)c4c65)OC3=O)nc2N1 [Example 143, (R)-3-fluoro-4-{3-[(S)-2-oxo-3-(3-oxo-3,4-dihydro-2H-pyrido[3,2-b][1,4]thiazin-6-yl)-oxazolidin-5-yl]-propylamino}-4,5-dihydro-pyrrolo[3,2,1-de][1,5]naphthyridin-7-one]
O=C1COc2ccc(N3C[C@H](CCCN[C@H]4Cn5c(=O)ccc6ncc(F)c4c65)OC3=O)nc2N1 [Example 144, (R)-3-fluoro-4-{3-[(S)-2-oxo-3-(3-oxo-3,4-dihydro-2H-pyrido[3,2-b][1,4]oxazin-6-yl)-oxazolidin-5-yl]-propylamino}-4,5-dihydro-pyrrolo[3,2,1-de][1,5]naphthyridin-7-one]
O=C1CSc2ccc(N3C[C@@H](CCCN[C@@H]4Cn5c(=O)ccc6ncc(F)c4c65)OC3=O)cc2N1 [Example 145, (S)-3-fluoro-4-{3-[(R)-2-oxo-3-(3-oxo-3,4-dihydro-2H-benzo[1,4]thiazin-6-yl)-oxazolidin-5-yl]-propylamino}-4,5-dihydro-pyrrolo[3,2,1-de][1,5]naphthyridin-7-one]
O=C1COc2ccc(N3C[C@@H](CCCN[C@@H]4Cn5c(=O)ccc6ncc(F)c4c65)OC3=O)cc2N1 [Example 146, (S)-3-fluoro-4-{3-[(R)-2-oxo-3-(3-oxo-3,4-dihydro-2H-benzo[1,4]oxazin-6-yl)-oxazolidin-5-yl]-propylamino}-4,5-dihydro-pyrrolo[3,2,1-de][1,5]naphthyridin-7-one]
O=C1CSc2ccc(N3C[C@@H](CCCN[C@@H]4Cn5c(=O)ccc6ncc(F)c4c65)OC3=O)nc2N1 [Example 147, (S)-3-fluoro-4-{3-[(R)-2-oxo-3-(3-oxo-3,4-dihydro-2H-pyrido[3,2-b][1,4]thiazin-6-yl)-oxazolidin-5-yl]-propylamino}-4,5-dihydro-pyrrolo[3,2,1-de][1,5]naphthyridin-7-one]
O=C1CSc2ccc(N3C[C@H](CCCN[C@@H]4Cn5c(=O)ccc6ncc(F)c4c65)OC3=O)cc2N1 [Example 148, (S)-3-fluoro-4-{3-[(S)-2-oxo-3-(3-oxo-3,4-dihydro-2H-benzo[1,4]thiazin-6-yl)-oxazolidin-5-yl]-propylamino}-4,5-dihydro-pyrrolo[3,2,1-de][1,5]naphthyridin-7-one]
O=C1COc2ccc(N3C[C@H](CCCN[C@@H]4Cn5c(=O)ccc6ncc(F)c4c65)OC3=O)cc2N1 [Example 149, (S)-3-fluoro-4-{3-[(S)-2-oxo-3-(3-oxo-3,4-dihydro-2H-benzo[1,4]oxazin-6-yl)-oxazolidin-5-yl]-propylamino}-4,5-dihydro-pyrrolo[3,2,1-de][1,5]naphthyridin-7-one]
O=C1CSc2ccc(N3C[C@H](CCCN[C@@H]4Cn5c(=O)ccc6ncc(F)c4c65)OC3=O)nc2N1 [Example 150, (S)-3-fluoro-4-{3-[(S)-2-oxo-3-(3-oxo-3,4-dihydro-2H-pyrido[3,2-b][1,4]thiazin-6-yl)-oxazolidin-5-yl]-propylamino}-4,5-dihydro-pyrrolo[3,2,1-de][1,5]naphthyridin-7-one]
O=C1COc2ccc(N3C[C@H](CCCN[C@@H]4Cn5c(=O)ccc6ncc(F)c4c65)OC3=O)nc2N1 [Example 151, (S)-3-fluoro-4-{3-[(S)-2-oxo-3-(3-oxo-3,4-dihydro-2H-pyrido[3,2-b][1,4]oxazin-6-yl)-oxazolidin-5-yl]-propylamino}-4,5-dihydro-pyrrolo[3,2,1-de][1,5]naphthyridin-7-one]
O=C1CSc2ccc(N3C[C@@H](CCN[C@H]4Cn5c(=O)ccc6cccc4c65)OC3=O)cc2N1 [Example 158, (R)-1-{2-[(R)-2-oxo-3-(3-oxo-3,4-dihydro-2H-benzo[1,4]thiazin-6-yl)-oxazolidin-5-yl]-ethylamino}-1,2-dihydro-pyrrolo[3,2,1-ij]quinolin-4-one]
O=C1CSc2ccc(N3C[C@H](CCCN[C@@H]4CN5C(=O)CNc6ccc(F)c4c65)OC3=O)cc2N1 [Example 160, (S)-7-fluoro-6-{3-[(S)-2-oxo-3-(3-oxo-3,4-dihydro-2H-benzo[1,4]thiazin-6-yl)-oxazolidin-5-yl]-propylamino}-1,2,5,6-tetrahydro-pyrrolo[1,2,3-de]quinoxalin-3-one]
O=C1CSc2ccc(N3C[C@@H](CCCN[C@H]4CN5C(=O)CNc6ccc(F)c4c65)OC3=O)nc2N1 [Example 171, (R)-7-fluoro-6-{3-[(R)-2-oxo-3-(3-oxo-3,4-dihydro-2H-pyrido[3,2-b][1,4]thiazin-6-yl)-oxazolidin-5-yl]-propylamino}-1,2,5,6-tetrahydro-pyrrolo[1,2,3-de]quinoxalin-3-one]
O=C1COc2ccc(N3C[C@H](CCCN[C@@H]4Cn5c(=O)ccc6ccc(F)c4c65)OC3=O)nc2N1 [Example 189, (S)-9-fluoro-1-{3-[(S)-2-oxo-3-(3-oxo-3,4-dihydro-2H-pyrido[3,2-b][1,4]oxazin-6-yl)-oxazolidin-5-yl]-propylamino}-1,2-dihydro-pyrrolo[3,2,1-ij]quinolin-4-one]
O=C1COc2ccc(N3C[C@@H](CCCN[C@@H]4Cn5c(=O)ccc6ccc(F)c4c65)OC3=O)nc2N1 [Example 190, (S)-9-fluoro-1-{3-[(R)-2-oxo-3-(3-oxo-3,4-dihydro-2H-pyrido[3,2-b][1,4]oxazin-6-yl)-oxazolidin-5-yl]-propylamino}-1,2-dihydro-pyrrolo[3,2,1-ij]quinolin-4-one]
O=C1CSc2ccc(N3C[C@@H](CCCN[C@@H]4Cn5c(=O)ccc6ccc(F)c4c65)OC3=O)nc2N1 [Example 192, (S)-9-fluoro-1-{3-[(R)-2-oxo-3-(3-oxo-3,4-dihydro-2H-pyrido[3,2-b][1,4]thiazin-6-yl)-oxazolidin-5-yl]-propylamino}-1,2-dihydro-pyrrolo[3,2,1-ij]quinolin-4-one]

MIC, 0.125 mg/L:
O=C1CSc2ccc(N3C[C@H](CCNC[C@]4(O)Cn5c(=O)ccc6nccc4c65)OC3=O)cc2N1 [Example 173, (S)-4-hydroxy-4-({2-[(S)-2-oxo-3-(3-oxo-3,4-dihydro-2H-benzo[1,4]thiazin-6-yl)-oxazolidin-5-yl]-ethylamino}-methyl)-4,5-dihydro-pyrrolo[3,2,1-de][1,5]naphthyridin-7-one]

Same assay, conditions: strain A894

MIC for M. catarrhalis A894, ≦0.031 mg/l:
O=C1CSc2ccc(N3C[C@H](CCCN[C@@H]4Cn5c(=O)ccc6ccc(F)c4c65)OC3=O)nc2N1 [Example 191, (S)-9-fluoro-1-{3-[(S)-2-oxo-3-(3-oxo-3,4-dihydro-2H-pyrido[3,2-b][1,4]thiazin-6-yl)-oxazolidin-5-yl]-propylamino}-1,2-dihydro-pyrrolo[3,2,1-U]quinolin-4-one]
